Some test systems named below: MCF7 breast; COLO 205 colon; U251 CNS; UACC-257 melanoma; PC-3 prostate; BT-549 breast; NCI-H23 lung; NCI-H226 lung; OVCAR-3 ovarian; SNB-75 CNS.
Holding throughout (experiment): NCI anticancer screen, dose series, 48 h

This passage reports TGI and GI50 results from PubChem BioAssay (NCI).

Molecules are shown by their SMILES. Values joined by “and” are separate entries in the source; they are usually repeats but may differ in a detail not shown here. Equal entries are not always repeated.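 96-well plates; 48 h exposure; 5 concentrations. Endpoints by linear interpolation between flanking doses. Not reached: highest tested concentration assigned. The concentration for 50% growth inhibition is given as GI50. At the TGI there is no net growth.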

With `NC12CC3CC4C1CC1CC2C(C3)C4(N)C1`, the TGI in the assay with MCF7 breast, in the assay on COLO 205 colon, in the assay on U251 CNS, with UACC-257 melanoma, in the assay with PC-3 prostate and with BT-549 breast was more than 100 µM each time. Besides, the TGI with NCI-H23 lung, with NCI-H226 lung and in the assay with OVCAR-3 ovarian was more than 100 µM in each case.

For `CCOC(=O)C1(C(=O)OCC)CC(=O)[C@@]2(C1)OCC[C@H]1OC(=O)C[C@H]12`, the TGI in the assay with MCF7 breast, in the assay on COLO 205 colon, with U251 CNS, in the assay on UACC-257 melanoma, in the assay on PC-3 prostate and with BT-549 breast was more than 100 µM each time. In addition, the TGI in the assay with NCI-H23 lung, with SNB-75 CNS and with OVCAR-3 ovarian was more than 100 µM in each case.

Take `O=C1/C(=C/c2cccs2)NC(=S)N1CN1CCOCC1`: the TGI in the assay on MCF7 breast, in the assay with COLO 205 colon, in the assay on U251 CNS, in the assay on UACC-257 melanoma, with PC-3 prostate and in the assay on NCI-H23 lung was more than 100 µM throughout. The TGI in the assay on NCI-H226 lung, in the assay with SNB-75 CNS and in the assay on OVCAR-3 ovarian was more than 100 µM each time.

`C=Cc1cc2c(cc1O)CC[C@@H]1[C@@H]2CC[C@]2(C)[C@@H](O)CC[C@@H]12`: the TGI in the assay with COLO 205 colon stood at 30.1 µM; in the assay on U251 CNS it was 15.1 µM; in the assay on UACC-257 melanoma it was 8.87 µM; in the assay with PC-3 prostate, 36.5 µM; in the assay on NCI-H23 lung, 14.3 µM; in the assay with NCI-H226 lung, 30.7 µM. For the same compound, the TGI in the assay with SNB-75 CNS was 24.4 µM; in the assay with OVCAR-3 ovarian it was 8.74 µM. For the same compound, the GI50 in the assay on OVCAR-3 ovarian was 2.57 µM.

With `CCOC(=O)C(C)(C)/C=C\C(Cl)=C(Cl)Cl`, the TGI in the assay on COLO 205 colon, with UACC-257 melanoma, in the assay with PC-3 prostate, with NCI-H23 lung, in the assay on NCI-H226 lung and in the assay on SNB-75 CNS was more than 100 µM each time. Further, in the assay on OVCAR-3 ovarian, the TGI is more than 100 µM.

Take `O=S(=O)(O)c1ccc2c(N=Nc3ccccc3Cl)c(O)ccc2c1`: the TGI in the assay with COLO 205 colon, in the assay on U251 CNS, in the assay on UACC-257 melanoma, in the assay on PC-3 prostate, in the assay with BT-549 breast and with NCI-H23 lung was more than 100 µM each time. In addition, the TGI in the assay on SNB-75 CNS and in the assay with OVCAR-3 ovarian was more than 100 µM in each case.

For `COc1cc(C(=O)Nc2c3ccccc3nc3ccccc23)cc(OC)c1OC`, the TGI in the assay on MCF7 breast, in the assay on COLO 205 colon, in the assay with U251 CNS, with UACC-257 melanoma, in the assay with PC-3 prostate and in the assay with BT-549 breast was more than 100 µM in each case. The TGI with NCI-H23 lung, in the assay with NCI-H226 lung and in the assay on OVCAR-3 ovarian was more than 100 µM throughout.

Regarding `COC(=O)c1cc2c3c(cc(O)c2[nH]1)N(C(=O)C1Cc2cc(OC)c(OC)c(OC)c2N1)CC3CCl` (stereo unspecified), the GI50 with U251 CNS, in the assay on UACC-257 melanoma, in the assay on PC-3 prostate, in the assay on BT-549 breast and with NCI-H23 lung was less than 0.01 µM each time. In addition, the TGI was 0.0109 µM with U251 CNS; less than 0.01 µM in the assay with UACC-257 melanoma; less than 0.01 µM in the assay with PC-3 prostate; less than 0.01 µM in the assay on BT-549 breast; less than 0.01 µM in the assay with NCI-H23 lung.

With `O=C1C=C(N2CC2)C(=O)C=C1N1CC1`, the GI50 is 0.00205 µM with MCF7 breast; 0.034 µM in the assay with COLO 205 colon; 0.0233 µM with U251 CNS; 0.121 µM in the assay with UACC-257 melanoma; 0.0207 µM in the assay with BT-549 breast; 0.0141 µM in the assay with NCI-H23 lung. For the same compound, the values for the GI50 with NCI-H226 lung, in the assay with SNB-75 CNS and in the assay on OVCAR-3 ovarian were 0.0129 µM, 0.00736 µM and 0.153 µM, respectively. Also, the TGI in the assay on MCF7 breast is 0.0712 µM; in the assay with COLO 205 colon, 0.126 µM and 0.267 µM; in the assay with U251 CNS, 0.284 µM and 1.49 µM; with UACC-257 melanoma it was 0.339 µM and 0.999 µM; in the assay on BT-549 breast, 0.159 µM and 1.34 µM; with NCI-H23 lung, 0.132 µM and 0.289 µM. In addition, the TGI with NCI-H226 lung was 0.261 µM and 1.4 µM; in the assay with OVCAR-3 ovarian, 0.967 µM and 0.277 µM.

As for `COC(=O)[C@H](Cc1ccccc1)NP(=O)(O)OCC1OC(n2cc(C)c(=O)[nH]c2=O)CC1N=[N+]=[N-]` (stereo partly specified), the TGI in the assay with MCF7 breast, in the assay with COLO 205 colon, in the assay on U251 CNS, in the assay on UACC-257 melanoma, in the assay with PC-3 prostate and with NCI-H23 lung was more than 100 µM each time. For the same compound, the TGI in the assay with NCI-H226 lung, with SNB-75 CNS and with OVCAR-3 ovarian was more than 100 µM in each case.

Consider `NC(Cc1c[nH]c2ccccc12)C(=O)O` (stereo unspecified), for which the TGI in the assay on MCF7 breast, with COLO 205 colon, in the assay with U251 CNS, with UACC-257 melanoma, in the assay on NCI-H23 lung and with NCI-H226 lung was more than 300 µM each time. The TGI in the assay with SNB-75 CNS and in the assay with OVCAR-3 ovarian was more than 300 µM in each case.

As for `CC12CC3(O)OC(O1)C1(COC(=O)c4ccccc4)C3CC21OC1OC(CO)C(O)C(O)C1O` (stereo unspecified), the TGI in the assay with MCF7 breast, in the assay on COLO 205 colon, with U251 CNS, in the assay with UACC-257 melanoma, with PC-3 prostate and in the assay with BT-549 breast was more than 100 µM in each case. Moreover, the TGI with NCI-H23 lung, in the assay on NCI-H226 lung and with OVCAR-3 ovarian was more than 100 µM each time.

For `O=C1CC(c2ccc[nH]2)=NN1c1ccccc1`, the TGI in the assay with COLO 205 colon, with U251 CNS, with UACC-257 melanoma, with PC-3 prostate, in the assay on BT-549 breast and in the assay on NCI-H23 lung was more than 100 µM in each case. The TGI in the assay on NCI-H226 lung, in the assay with SNB-75 CNS and in the assay on OVCAR-3 ovarian was more than 100 µM throughout.

Regarding `CCOC(=O)/C=C(\N=P(c1ccccc1)(c1ccccc1)c1ccccc1)C(F)(F)C(F)(F)C(F)(F)C(F)(F)C(F)(F)F`, the TGI with MCF7 breast, in the assay with COLO 205 colon, in the assay with U251 CNS, in the assay with UACC-257 melanoma, in the assay with PC-3 prostate and in the assay with BT-549 breast was more than 100 µM throughout. Further, the TGI in the assay on NCI-H23 lung, in the assay with SNB-75 CNS and in the assay on OVCAR-3 ovarian was more than 100 µM in each case.
